# Measured values: PubChem BioAssay AID1963968 (Molecular Pharmacology Branch, DTP, NCI, 2024)
# Tested on: 945468-187-T-J3-PDC spheroids with HUVEC/MSC, viability
# Assay: Anticancer human tumor 945468-187-T-J3-PDC patient-derived rectal carcinoma cell line growth inhibition [PI3K]
# Details: for IC50: curve of first compound; for viability, T/C: stronger effect = lower value
# Summary of the method: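 Combination activity was assessed by viability in multicellular tumor spheroids carrying HUVEC and MSC components. Agents were tested with PI3K inhibitors from a Cmax-based top dose (or 10 microM) downward in half-log increments.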
# [1] = second compound 0.0316 µM, first compound 0.0316 µM
# [2] = second compound 0.0316 µM, first compound 0.1 µM
# [3] = second compound 0.0316 µM, first compound 0.316 µM
# [4] = second compound 0.0316 µM, first compound 1 µM
# [5] = second compound 0.0316 µM, first compound 3.16 µM
# [6] = second compound 0.0316 µM, first compound 10 µM
# [7] = second compound 0.1 µM, first compound 0.0316 µM
# [8] = second compound 0.1 µM, first compound 0.1 µM
# [9] = second compound 0.1 µM, first compound 0.316 µM
# [10] = second compound 0.1 µM, first compound 1 µM
# [11] = second compound 0.1 µM, first compound 3.16 µM
# [12] = second compound 0.1 µM, first compound 10 µM
# [13] = second compound 0.316 µM, first compound 0.0316 µM
# [14] = second compound 0.316 µM, first compound 0.1 µM
# [15] = second compound 0.316 µM, first compound 0.316 µM
# [16] = second compound 0.316 µM, first compound 1 µM
# [17] = second compound 0.316 µM, first compound 3.16 µM
# [18] = second compound 0.316 µM, first compound 10 µM
# [19] = second compound 1 µM, first compound 0.0316 µM
# [20] = second compound 1 µM, first compound 0.1 µM
# [21] = second compound 1 µM, first compound 0.316 µM
# [22] = second compound 1 µM, first compound 1 µM
# [23] = second compound 1 µM, first compound 3.16 µM
# [24] = second compound 1 µM, first compound 10 µM
# [25] = second compound 3.16 µM, first compound 0.0316 µM
# [26] = second compound 3.16 µM, first compound 0.1 µM
# [27] = second compound 3.16 µM, first compound 0.316 µM
# [28] = second compound 3.16 µM, first compound 1 µM
# [29] = second compound 3.16 µM, first compound 3.16 µM
# [30] = second compound 3.16 µM, first compound 10 µM
# [31] = second compound 10 µM, first compound 0.0316 µM
# [32] = second compound 10 µM, first compound 0.1 µM
# [33] = second compound 10 µM, first compound 0.316 µM
# [34] = second compound 10 µM, first compound 1 µM
# [35] = second compound 10 µM, first compound 3.16 µM
# [36] = second compound 10 µM, first compound 10 µM
# 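Further: spheroids exposed to agents for 7 days before viability read.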
# 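Wherever viability, T/C is given: 100% = DMSO vehicle control viability.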
smiles,measurement,setting,value
CC1(C)CCC(CN2CCN(c3ccc(C(=O)NS(=O)(=O)c4ccc(NCC5CCOCC5)c([N+](=O)[O-])c4)c(Oc4cnc5[nH]ccc5c4)c3)CC2)=C(c2ccc(Cl)cc2)C1 + CC(Nc1ncnc2nc[nH]c12)c1cc2cccc(Cl)c2c(=O)n1-c1ccccc1,IC50,second compound 0.0316 µM,> 10 µM
same,IC50,second compound 0.1 µM,> 10 µM
same,IC50,second compound 0.316 µM,> 10 µM
same,IC50,second compound 1 µM,> 10 µM
same,IC50,second compound 3.16 µM,> 10 µM
same,IC50,second compound 10 µM,> 10 µM
same,"viability, T/C",[1],99.2%
same,"viability, T/C",[2],91.9%
same,"viability, T/C",[3],95.7%
same,"viability, T/C",[4],96%
same,"viability, T/C",[5],117%
same,"viability, T/C",[6],114%
same,"viability, T/C",[7],94.4%
same,"viability, T/C",[8],95.8%
same,"viability, T/C",[9],98.7%
same,"viability, T/C",[10],102%
same,"viability, T/C",[11],105%
same,"viability, T/C",[12],106%
same,"viability, T/C",[13],111%
same,"viability, T/C",[14],106%
same,"viability, T/C",[15],104%
same,"viability, T/C",[16],118%
same,"viability, T/C",[17],113%
same,"viability, T/C",[18],104%
same,"viability, T/C",[19],100%
same,"viability, T/C",[20],94%
same,"viability, T/C",[21],92.6%
same,"viability, T/C",[22],98.6%
same,"viability, T/C",[23],110%
same,"viability, T/C",[24],110%
same,"viability, T/C",[25],100%
same,"viability, T/C",[26],107%
same,"viability, T/C",[27],95.4%
same,"viability, T/C",[28],109%
same,"viability, T/C",[29],115%
same,"viability, T/C",[30],98.2%
same,"viability, T/C",[31],105%
same,"viability, T/C",[32],95.6%
same,"viability, T/C",[33],97.3%
same,"viability, T/C",[34],103%
same,"viability, T/C",[35],120%
same,"viability, T/C",[36],93.9%
C[C@@H](NC(=O)c1ncnc(N)c1Cl)c1ncc(C(=O)Nc2cc(C(F)(F)F)c(Cl)cn2)s1 + CC(Nc1ncnc2nc[nH]c12)c1cc2cccc(Cl)c2c(=O)n1-c1ccccc1,IC50,second compound 0.0316 µM,> 10 µM
same,IC50,second compound 0.1 µM,> 10 µM
same,IC50,second compound 0.316 µM,> 10 µM
same,IC50,second compound 1 µM,> 10 µM
same,IC50,second compound 3.16 µM,> 10 µM
same,IC50,second compound 10 µM,> 10 µM
same,"viability, T/C",[1],98%
same,"viability, T/C",[2],87.3%
same,"viability, T/C",[3],95.9%
same,"viability, T/C",[4],101%
same,"viability, T/C",[5],104%
same,"viability, T/C",[6],105%
same,"viability, T/C",[7],106%
same,"viability, T/C",[8],109%
same,"viability, T/C",[9],97.7%
same,"viability, T/C",[10],96.5%
same,"viability, T/C",[11],94.7%
same,"viability, T/C",[12],103%
same,"viability, T/C",[13],95.7%
same,"viability, T/C",[14],115%
same,"viability, T/C",[15],108%
same,"viability, T/C",[16],103%
same,"viability, T/C",[17],98.7%
same,"viability, T/C",[18],96.6%
same,"viability, T/C",[19],101%
same,"viability, T/C",[20],101%
same,"viability, T/C",[21],103%
same,"viability, T/C",[22],96.2%
same,"viability, T/C",[23],102%
same,"viability, T/C",[24],86.5%
same,"viability, T/C",[25],104%
same,"viability, T/C",[26],105%
same,"viability, T/C",[27],92.7%
same,"viability, T/C",[28],106%
same,"viability, T/C",[29],96.4%
same,"viability, T/C",[30],96%
same,"viability, T/C",[31],101%
same,"viability, T/C",[32],99.7%
same,"viability, T/C",[33],92.5%
same,"viability, T/C",[34],108%
same,"viability, T/C",[35],98.8%
same,"viability, T/C",[36],93.3%
Cn1ncnc1[C@H]1c2n[nH]c(=O)c3cc(F)cc(c23)N[C@@H]1c1ccc(F)cc1 + CC(Nc1ncnc2nc[nH]c12)c1cc2cccc(Cl)c2c(=O)n1-c1ccccc1,IC50,second compound 0.0316 µM,> 0.1 µM
same,IC50,second compound 0.1 µM,> 0.1 µM
same,IC50,second compound 0.316 µM,> 0.1 µM
same,IC50,second compound 1 µM,> 0.1 µM
same,IC50,second compound 3.16 µM,> 0.1 µM
same,IC50,second compound 10 µM,> 0.1 µM
same,"viability, T/C","second compound 0.0316 µM, first compound 0.000316 µM",105%
same,"viability, T/C","second compound 0.0316 µM, first compound 0.001 µM",87.4%
same,"viability, T/C","second compound 0.0316 µM, first compound 0.00316 µM",91.7%
same,"viability, T/C","second compound 0.0316 µM, first compound 0.01 µM",82.9%
same,"viability, T/C",[1],101%
same,"viability, T/C",[2],92.4%
same,"viability, T/C","second compound 0.1 µM, first compound 0.000316 µM",94.2%
same,"viability, T/C","second compound 0.1 µM, first compound 0.001 µM",87.8%
same,"viability, T/C","second compound 0.1 µM, first compound 0.00316 µM",97.8%
same,"viability, T/C","second compound 0.1 µM, first compound 0.01 µM",85.6%
same,"viability, T/C",[7],89.3%
same,"viability, T/C",[8],97.8%
same,"viability, T/C","second compound 0.316 µM, first compound 0.000316 µM",97.5%
same,"viability, T/C","second compound 0.316 µM, first compound 0.001 µM",95.8%
same,"viability, T/C","second compound 0.316 µM, first compound 0.00316 µM",90.1%
same,"viability, T/C","second compound 0.316 µM, first compound 0.01 µM",103%
same,"viability, T/C",[13],88%
same,"viability, T/C",[14],101%
same,"viability, T/C","second compound 1 µM, first compound 0.000316 µM",85.2%
same,"viability, T/C","second compound 1 µM, first compound 0.001 µM",109%
same,"viability, T/C","second compound 1 µM, first compound 0.00316 µM",98.5%
same,"viability, T/C","second compound 1 µM, first compound 0.01 µM",86.8%
same,"viability, T/C",[19],104%
same,"viability, T/C",[20],105%
same,"viability, T/C","second compound 3.16 µM, first compound 0.000316 µM",103%
same,"viability, T/C","second compound 3.16 µM, first compound 0.001 µM",99.8%
same,"viability, T/C","second compound 3.16 µM, first compound 0.00316 µM",95.1%
same,"viability, T/C","second compound 3.16 µM, first compound 0.01 µM",100%
same,"viability, T/C",[25],102%
same,"viability, T/C",[26],104%
same,"viability, T/C","second compound 10 µM, first compound 0.000316 µM",101%
same,"viability, T/C","second compound 10 µM, first compound 0.001 µM",97.5%
same,"viability, T/C","second compound 10 µM, first compound 0.00316 µM",106%
same,"viability, T/C","second compound 10 µM, first compound 0.01 µM",95.7%
same,"viability, T/C",[31],96.9%
same,"viability, T/C",[32],102%
